Consider 34 compounds from patent publication US5648359A, “Tumor necrosis factor production inhibitors” (Sumitomo Pharmaceuticals Company, Limited, priority 1993, dated 1997).

What is called inhibition is the drop in the measured response relative to a control, in per cent.

Structures can show the parent of a compound that is named as a salt.

The subject of the first assay is TNF production or secretion in mouse peritoneal macrophages. The assay is described as follows: Inhibitory effect on TNF production or secretion in mouse peritoneal macrophages (30 μM). The class given is cell-based, mouse (BALB/c). The settings on record: 30 μM compound; LPS 10 μg/ml, 18 hours; TNF by L929 bioassay. As for the experimental part: Inhibitory effect on TNF production or secretion in mouse peritoneal macrophages (In case drug concentration is 30 μM)
BALB/c mice (5 weeks old, female, Charles River Japan) were intraperitoneally injected with 1 ml of 3% thioglycollate broth. After 4 days, the mice were sacrificed. Peritoneal exudated cells (PECs) were collected from the peritoneal cavity by washing with minimum essential medium (hereinafter abbreviated as MEM, manufactured by Handai Biseibutubyo Kenkyukai, Osaka, Japan) containing 5 U/ml heparin and 1% fetal bovine serum (FBS, manufactured by GIBCO Laboratories Inc.). PECs were washed three times with MEM, suspended with MEM containing 10% FBS. After the viable cells were counted by exclusion of trypan blue dye, the suspension was adjusted at the final concentration of 2×10^6 cells/ml with MEM containing 10% FBS and seeded into a 96-well microplate (Costar, Cambridge, Mass., USA) at 2×10^5 cells/100 μl/well. The PECs were incubated for an hour at 37° C. in a humidified 5% CO2 incubator, and were washed twice with MEM warmed at 37° C. to remove non-adherent cells. Residual adherent cells were used as peritoneal macrophages. After the washing above, 50 μl each/well of MEM containing 10% FBS was added to each well and provided for use in the following experiment.
The powdery compound of the present invention was dissolved in dimethylsulfoxide in a concentration of 30 mM. The solution was then diluted with MEM containing 10% FBS in the final concentration of 30 μM. In the peritoneal macrophages obtained above, 50 μl each of the dilution was added to each well to make the total volume 100 μl. Thereafter 100 μl each of lipopolysaccharide (hereinafter abbreviated as LPS, E. coli 0111B4, manufactured by DIFCO, USA) was added to each well in the final concentration of 10 μg/ml. After the cells were incubated at 37° C. for 18 hours in a humidified 5% CO2 incubator, 25 μl of the supernatant in each well was collected.
The TNF activity in the supernatant collected was determined by bioassay using TNF-sensitive mouse fibroblast cell line L929 cells. That is, 100 μl each of MEM containing 10% FBS was added to each well of a 96-well microplate; using the resulting mixture, 25 μl of the collected supernatant was diluted to 5-fold dilution to final concentrations (concentrations after the following addition of L929 cell suspension) of 10%, 2%, 0.4% and 0.08%.
L929 cells were then suspended (4×10^5 cells/ml) in MEM containing 10% FBS and 1 μg/ml actinomycin D (Sigma Co.) and 100 μl each of the suspension was added to each well of the above microplate at 4×10^4 cells/well and cultured at 37° C. in a humidified 50% CO2. The viable cells were counted by partial modification of the MTT method reported in Monosann et al., T., J. Immunol. Method, 65, 55-63, 1983. The modified MTT method comprises the following steps. One mg/ml of 3-(4,5-dimethylthiazol-2-yl)-2,5-diphenyltetrazolium bromide (hereinafter abbreviated as MTT, manufactured by Sigma Co.) was dissolved in MEM, and 50 μl each of the solution was added to each well of the microplate above. After incubating the microplate for further 6 hours, the supernatant was discarded and 100 μl of 0.004N HCl-isopropyl alcohol and then 10 μl of 0.01% sodium laurylsulfate aqueous solution was added to each well. After shaking the 96-well microplate for a few minutes, the absorbance in each well was measured with a microplate reader (Corona Co.) at an absorption wavelength of 550 nm. The absorbance correlated to the count of the viable L929 cells and represented the TNF activity in the supernatant. The TNF activity was determined in terms of unit (U)/ml from the calibration curve of absorbance for the TNF activity obtained using mouse recombinant TNF α (TNF-M, manufactured by Genzyme Co.) as a standard. The activity of inhibiting TNF production of each compound, was determined by the following equation.
Inhibition of TNF production or secretion (%)=(1-TNF activity in the […]
For the compound “mixture of 16-acetyl-6,7,13,14-tetrahydro-2-hydroxymethyl[1,3]benzodioxolo[5,6-f]cycloocta[1,2-g]-1,4-benzodioxan-6,13-imine and 16-acetyl-6,7,13,14-tetrahydro-3-hydroxymethyl[1,3]benzodioxolo[5,6-f]cycloocta[1,2-g]-1,4-benzodioxan-6,13-imine [Example 8]”, the “Inhibition of TNF Production or Secretion” value was 86%.

With “mixture of 17-acetyl-2-ethoxycarbonyl-6,7,14,15-tetrahydrocycloocta-[1,2-g:5,6-g']bis[1,4]-benzodioxan-6,14-imine and 17-acetyl-3-ethoxycarbonyl-6,7,14,15-tetrahydrocycloocta[1,2-g:5,6-g']bis[1,4]benzodioxan-6,14-imine [Example 6]”, the “Inhibition of TNF Production or Secretion” value is reported as 89%.

The same assay, now with this note: Mus musculus; 30 μM compound; LPS 10 μg/ml, 18 hours; TNF by L929 bioassay.
Take `CCOC(=O)C(=O)N1C2Cc3cc4c(cc3C1Cc1cc3c(cc12)OCO3)OCO4` [Example 21, 15-ethoxalyl-5,6,12,13-tetrahydrocycloocta[1,2-f:5,6-f']bis[1,3]benzodioxol-5,12-imine]: the inhibition at 30 µM amounted to 69%. For the compound `CCOC(=O)CN1C2Cc3cc4c(cc3C1Cc1cc3c(cc12)OCO3)OCO4` [Example 37], the inhibition at 30 µM came out at 19%. On the same count and under the same terms, the figure for `c1c2c(cc3c1OCCO3)C1Cc3cc4c(cc3C(C2)N1)OCCO4` [Example 14] is 63%; for `c1c2c(cc3c1OCO3)C1Cc3cc4c(cc3C(C2)N1CCN1CCCCC1)OCO4` [Example 34] it is 56%. The same measure, in the same setting: under `C=CCN1C2Cc3cc4c(cc3C1Cc1cc3c(cc12)OCO3)OCO4` [Example 32] stands 12%; under `CCOC(=O)CCN1C2Cc3cc4c(cc3C1Cc1cc3c(cc12)OCO3)OCO4` [Example 38], 6%. Still for that read-out and setting: the figure for `CCOC(=O)CC(=O)N1C2Cc3cc4c(cc3C1Cc1cc3c(cc12)OCO3)OCO4` [Example 22, 15-(ethoxycarbonylacetyl)-5,6,12,13-tetrahydrocycloocta[1,2-f:5,6-g']bis[1,3]benzodioxol-5,12-imine] is 77%; for `NCCCC(=O)N1C2Cc3cc4c(cc3C1Cc1cc3c(cc12)OCO3)OCO4` [Example 54, 15-(4-aminobutyryl)-5,6,12,13-tetrahydrocycloocta[1,2-f:5,6-f']bis[1,3]benzodioxol-5,12-imine] it is 35%. In the case of `CC(C)CN1C2Cc3cc4c(cc3C1Cc1cc3c(cc12)OCO3)OCO4` [Example 31], the inhibition at 30 µM stood at 36%. In the case of `O=C(Oc1ccccc1)N1C2Cc3cc4c(cc3C1Cc1cc3c(cc12)OCO3)OCO4` [Example 26], the inhibition at 30 µM was 27%.

On to `O=C(CCO)N1C2Cc3cc4c(cc3C1Cc1cc3c(cc12)OCO3)OCO4` [Example 47, 5,6,12,13-tetrahydro-15-(3-hydroxypropionyl)cycloocta[1,2-f:5,6-f']bis[1,3]benzodioxol-5,12-imine], for which the inhibition at 30 µM was found to be 83%. Regarding `CCC(=O)N1C2Cc3cc4c(cc3C1Cc1cc3c(cc12)OCO3)OCO4` [Example 17, 5,6,12,13-tetrahydro-15-propionylcycloocta-[1,2-f:5,6-f']bis[1,3]benzodioxol-5,12-imine], the inhibition at 30 µM came to 94%. `CCN1C2Cc3cc4c(cc3C1Cc1cc3c(cc12)OCO3)OCO4` [Example 2, 15-ethyl-5,6,12,13-tetrahydrocycloocta[1,2-f:5,6-f']bis[1,3]benzodioxol-5,12-imine hydrochloride]: the inhibition at 30 µM is 72%.

For `CCOC(=O)N1C2Cc3cc4c(cc3C1Cc1cc3c(cc12)OCO3)OCO4` [Example 24], the inhibition at 30 µM is 68%.

`CC(=O)N1C2Cc3cc4c(cc3C1Cc1cc3c(cc12)OCO3)OCO4` [Example 1, 15-acetyl-5,6,12,13-tetrahydrocycloocta[1,2-f:5,6-f']bis[1,3]benzodioxol-5,12-imine]: the inhibition at 30 µM came to 95%. Take `CNC(=O)N1C2Cc3cc4c(cc3C1Cc1cc3c(cc12)OCO3)OCO4` [Example 44, 5,6,12,13-tetrahydro-15-(N-methylcarbamoyl)cycloocta[1,2-f:5,6-f']bis[1,3]benzodioxol-5,12-imine]: the inhibition at 30 µM came to 90%.

For the compound `c1c2c(cc3c1OCO3)C1Cc3cc4c(cc3C(C2)N1)OCO4` [Example 13, 5,6,12,13-tetrahydrocycloocta-[1,2-f:5,6-f']bis[1,3]benzodioxol-5,12-imine], the inhibition at 30 µM stood at 78%. For the compound `N#CCCN1C2Cc3cc4c(cc3C1Cc1cc3c(cc12)OCO3)OCO4` [Example 39, 15-(2-cyanoethyl)-5,6,12,13-tetrahydrocycloocta[1,2-f:5,6-f']bis[1,3]benzodioxol-5,12-imine], the inhibition at 30 µM was -48%. `O=C(CO)N1C2Cc3cc4c(cc3C1Cc1cc3c(cc12)OCO3)OCO4` [Example 48, 15-glycoloyl-5,6,12,13-tetrahydrocycloocta[1,2-f:5,6-f']bis-[1,3]benzodioxol-5,12-imine]: the inhibition at 30 µM was determined as 85%. Take `CN1C2Cc3cc4c(cc3C1Cc1cc3c(cc12)OCO3)OCO4` [Example 27]: the inhibition at 30 µM was 86%.

As to `O=C(c1ccccc1)N1C2Cc3cc4c(cc3C1Cc1cc3c(cc12)OCO3)OCO4` [Example 23], the inhibition at 30 µM worked out at 39%. Take `C=CCCCN1C2Cc3cc4c(cc3C1Cc1cc3c(cc12)OCO3)OCO4` [Example 33]: the inhibition at 30 µM was -5%.

`Fc1ccc(CCCN2C3Cc4cc5c(cc4C2Cc2cc4c(cc23)OCO4)OCO5)cc1` [Example 4, 15-[3-(4-fluorophenyl)propyl]-5,6,12,13-tetrahydrocycloocta[1,2-f:5,6-f']bis[1,3]benzodioxol-5,12-imine hydrochloride]: the inhibition at 30 µM came out at 18%. Still for that read-out and setting: the figure for `NCCCCN1C2Cc3cc4c(cc3C1Cc1cc3c(cc12)OCO3)OCO4` [Example 51, 15-(4-aminobutyl)-5,6,12,13-tetrahydrocycloocta[1,2-f:5,6-f']bis[1,3]benzodioxol-5,12-imine] is -44%. Take `CCCC(=O)N1C2Cc3cc4c(cc3C1Cc1cc3c(cc12)OCO3)OCO4` [Example 18]: the inhibition at 30 µM worked out at 86%. The same measure, in the same setting: the figure for `OCCN1C2Cc3cc4c(cc3C1Cc1cc3c(cc12)OCO3)OCO4` [Example 35] is 65%; for `NCCN1C2Cc3cc4c(cc3C1Cc1cc3c(cc12)OCO3)OCO4` [Example 50, 15-(2-aminoethyl)-5,6,12,13-tetrahydrocycloocta[1,2-f:5,6-f']bis[1,3]benzodioxol-5,12-imine] it is 64%; for `COCCN1C2Cc3cc4c(cc3C1Cc1cc3c(cc12)OCO3)OCO4` [Example 42, 5,6,12,13-tetrahydro-15-(2-methoxyethyl)cycloocta[1,2-f:5,6-f']bis[1,3]benzodioxol-5,12-imine] it is 11%.

Take `O=CN1C2Cc3cc4c(cc3C1Cc1cc3c(cc12)OCO3)OCO4` [Example 40, 15-formyl-5,6,12,13-tetrahydrocycloocta[1,2-f:5,6-f']bis[1,3]benzodioxol-5,12-imine]: the inhibition at 30 µM worked out at 84%.

Consider `O=C(O)CC(=O)N1C2Cc3cc4c(cc3C1Cc1cc3c(cc12)OCO3)OCO4` [Example 45, 15-(carboxyacetyl)-5,6,12,13-tetrahydrocycloocta[1,2-f:5,6-f']bis[1,3]benzodioxol-5,12-imine], for which the inhibition at 30 µM amounted to 15%.

As to `COCC(=O)N1C2Cc3cc4c(cc3C1Cc1cc3c(cc12)OCO3)OCO4` [Example 20], the inhibition at 30 µM amounted to 92%. Regarding `COC(=O)CCN1C2Cc3cc4c(cc3C1Cc1cc3c(cc12)OCO3)OCO4` [Example 36], the inhibition at 30 µM is -24%.
